Measured values published in ChEMBL document CHEMBL4052775, “Design, synthesis and in vitro anti-mycobacterial evaluation of gatifloxacin-1H-1,2,3-triazole-isatin hybrids” (Bioorg Med Chem Lett, 2017).
Converted amounts (≈) assume the structure as drawn.

How the values were obtained:
[1] = tested on: Mycobacterium tuberculosis; assay: Antimycobacterial activity against Mycobacterium tuberculosis H37Rv ATCC 27294 by two fold dilution method; format: functional
[2] = Cytotoxicity against African green monkey Vero cells assessed as reduction in cell viability after 72 hrs by MTT assay; format: cell-based; details: chlorocebus sabaeus
[3] = Selectivity index, ratio of CC50 for African green monkey Vero cells to MIC for Mycobacterium tuberculosis H37Rv ATCC 27294; format: toxicity; details: read-out: Selectivity Index

SMILES	MIC [1] [µg/mL]	CC50 at 72 h [2] [µg/mL]	selectivity ratio [3]
CO[C@H]1/C=C/O[C@@]2(C)Oc3c(C)c(O)c4c(O)c(c(/C=N/N5CCN(C)CC5)c(O)c4c3C2=O)NC(=O)/C(C)=C\C=C\[C@H](C)[C@H](O)[C@@H](C)[C@@H](O)[C@@H](C)[C@H](OC(C)=O)[C@@H]1C [RIFAMPIN]	0.39 (≈ 0.474 µM)	500 (≈ 608 µM)	–
NNC(=O)c1ccncc1 [ISONIAZID]	0.05 (≈ 0.365 µM)	125 (≈ 911 µM)	–
COc1c(N2CCNC(C)C2)c(F)cc2c(=O)c(C(=O)O)cn(C3CC3)c12 (configuration not stated) [GATIFLOXACIN]	0.78 (≈ 2.08 µM)	125 (≈ 333 µM)	160
